# Data published in patent US12661355B2, “Compounds and methods for inducing UCP1 expression” (The Regents of the University of California, priority 2020, dated 2026).
# Legend:
# [1] = tested on: human brown adipocyte cell line; assay: Cellular respiration in human brown adipocytes; type: cell-based; details: 10 μM for 4 days
# Procedure: Human immortalized brown and white preadipocytes were obtained from Dr. Yu-Hua Tseng (Joslin Diabetes Center, Harvard Medical School, USA). The generation of the two cell lines from human neck adipose tissue biopsies and immortalization was performed as previously described but from a different donor. Cells were cultured in high glucose DMEM supplemented with 10% FBS and antibiotics. Two days after reaching confluence, cells were treated with 30 μM biotin, 500 nM insulin, 17 μM pantothenate, 100 nM dexamethasone, 2 nM 3,3′,5-Triiodo-L-thyronine, 500 μM IBMX, 30 μM indomethacin and 1 μM rosiglitazone, for 12 days. […]
# Cellular respiration was measured using a Seahorse XF24 or XF96 analyzer (Agilent) following known protocols Immortalized brown adipocytes were differentiated in 6-well plates and replated in the Seahorse XF24 plates at a density of 50,000 cells per well using trypsin and collagenase type II. […] Oxygen consumption rates were measured before and after the sequential injection of 1 μM oligomycin, 1 μM FCCP, and 0.5 μM rotenone/antimycin A. For these cells, results were normalized to cell count determined by nuclei fluorescent staining with Hoescht staining imaged on Cytation 5 Imaging Reader and analysis with Gen5 software (BioTek). […] Maximal respiration was determined after FCCP injection.
# PKA = PKA activity ELISA, cell or tissue lysates treated 30 min; type: biochemical, mouse; details: 30 min; for PKA activity: brown adipocyte lysate
# Procedure: PKA kinase activity was measured with an ELISA that utilized a synthetic peptide as substrate for PKA and a polyclonal antibody that recognizes the phosphorylated form of the substrate (ab139435, Abcam). PKA activity was measured in lysates from cultured brown adipocytes, mouse BAT, or liver. Cells and tissues were lysed in 20 mM MOPS, 5 mM EGTA, 2 mM EDTA, and 0.1% Triton X-100 supplemented with protease and phosphatase inhibitor as described above. Protein concentration was determined by Bradford assay and 10 μg of cells, 0.25 μg of BAT extract, or 0.5 μg of liver extract were assessed for PKA activation according to the manufacturer's instruction, with minor changes. Briefly, vehicle or Z160 was incubated with brown adipocyte cells overnight or with protein lysates for 30 min, followed by one wash before the primary antibody, 60 min incubation with the primary antibody, 30 min incubation with the secondary antibody, and by 10 min washing. Absorbance was measured after the substrate was added for 20-60 min, depending the intensity of the signal.
# brown adipocytes = assay: Lipolysis assay in brown adipocytes; type: cell-based, mouse; details: immortalized brown adipocytes, 10 μM overnight
# Procedure: Lipolysis was assessed in cultured cells using medium collected over 3 h with the Adipolysis assay kit (AB100, Millipore), according to the manufacturer's protocol.
# CYTC and GAPDH = assay: Western blot of mitochondria-associated proteins, CYTC and GAPDH; type: cell-based, mouse; details: brown adipocytes, 10 μM
# Procedure: Cells and tissues were lysed in 10 mM Tris pH 7.5, 10 mM NaCl, 1 mM EDTA and 0.5% Triton X-100, supplemented with complete mini EDTA-free protease (Roche Diagnostics) and phosphatase (Cocktail 2 and 3, Sigma) inhibitors, followed by 10 second sonication. For analysis of mitochondrial proteins, mitochondria were isolated from cells by dual centrifugation, as described. Protein lysates were separated by SDS-PAGE and transferred to a nitrocellulose membrane. Transfer was confirmed by Ponceau staining (P7170, Sigma). After blocking in 5% milk, 0.1% Tween-20 in Tris-buffered saline (TBS), primary antibody was incubated overnight at 4° C. in 5% bovine serum albumin and 0.1% Tween-20 in TBS. Primary antibodies against ACTB (GTX109639, GeneTex), AKAP1 (5203, Cell Signaling), AKAP6 (07-087, Millipore), Cytochrome c (136F3, Cell Signaling), electron transport chain protein complexes (Total OXPHOS rodent WB antibody cocktail ab110413, Abcam), GAPDH (GTX100118, Genetex), active p38 MAPK (V1211, Promega), total p38 MAPK (8690, Cell Signaling), PGC1α (AB3242, Millipore), phospho-(Ser/Thr) PKA substrate (9621, Cell Signaling), PKA C-α (4782, Cell Signaling), PKA RII-β (ab75993, Abcam), and UCP1 (662045, Calbiochem) were used at 1:2000. […] Quantification using representative bands from the Ponceau staining was performed with ImageJ. […]
structure (smiles),measurement,setting,value
COc1ccc(NC(=O)CSc2nc3ccccc3c(=O)[nH]2)c(OC)c1 [Z160],maximal respiration,[1],increased
same,mitochondrial respiration (primarily uncoupled respiration),[1],increased
same,PKA activity,PKA; 25 μM,significant increase
same,PKA activity,PKA; 50 μM,significant increase
same,PKA activation,"PKA; mouse BAT extract, 25 μM",stimulated PKA activation
same,PKA activation,"PKA; mouse liver extract, 25 μM",stimulated PKA activation
same,lipolysis,brown adipocytes,induced lipolysis
same,levels of CYTC and GAPDH in the mitochondrial fraction,CYTC and GAPDH,not altered
